{
  "source": "patent US11814372B2",
  "about": "“Agonists of EPHA and their uses” (CASE WESTERN RESERVE UNIVERSITY, priority 2017, dated 2023)",
  "key": {"[1]": {"target": "T1, EphA3 (Homo sapiens, UniProt P29320)", "T1 construct": "expressed in transfected cells; host or cells: HEK 293", "T1 sequence (P29320 21-983)": "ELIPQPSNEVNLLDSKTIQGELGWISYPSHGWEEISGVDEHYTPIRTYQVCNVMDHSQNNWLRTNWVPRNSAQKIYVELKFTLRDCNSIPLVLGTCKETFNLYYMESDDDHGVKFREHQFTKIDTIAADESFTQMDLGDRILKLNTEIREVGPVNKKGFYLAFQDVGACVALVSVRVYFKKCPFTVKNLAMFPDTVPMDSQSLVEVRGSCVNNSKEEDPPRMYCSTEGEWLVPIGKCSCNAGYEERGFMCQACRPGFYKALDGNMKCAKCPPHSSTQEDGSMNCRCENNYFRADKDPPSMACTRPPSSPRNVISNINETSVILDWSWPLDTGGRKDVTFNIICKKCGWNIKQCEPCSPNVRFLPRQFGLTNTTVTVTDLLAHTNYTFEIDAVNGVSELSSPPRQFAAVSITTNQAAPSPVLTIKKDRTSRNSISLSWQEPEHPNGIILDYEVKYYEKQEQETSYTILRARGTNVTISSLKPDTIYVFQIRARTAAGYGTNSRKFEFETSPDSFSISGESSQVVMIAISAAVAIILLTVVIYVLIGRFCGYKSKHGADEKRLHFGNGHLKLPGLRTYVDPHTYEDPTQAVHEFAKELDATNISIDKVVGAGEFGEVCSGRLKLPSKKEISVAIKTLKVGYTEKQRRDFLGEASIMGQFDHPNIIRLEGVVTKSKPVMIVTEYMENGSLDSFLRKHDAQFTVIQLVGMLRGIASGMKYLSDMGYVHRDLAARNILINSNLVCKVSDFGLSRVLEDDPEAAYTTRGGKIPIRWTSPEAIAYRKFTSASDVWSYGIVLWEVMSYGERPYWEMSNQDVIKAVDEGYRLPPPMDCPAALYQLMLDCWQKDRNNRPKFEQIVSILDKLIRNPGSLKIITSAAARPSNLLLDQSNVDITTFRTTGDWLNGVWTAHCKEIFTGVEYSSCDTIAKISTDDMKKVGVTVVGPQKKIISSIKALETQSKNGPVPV", "assay": "Eph receptor activation in HEK 293 cells overexpressing EphA3", "format": "cell-based", "conditions": "HEK 293 cells overexpressing EphA3, compared to EphA2 and EphA4", "quoted_text": "Cells were plated in 24-well dishes at a density of 100,000 cells/well and grown for 24 hours prior to stimulation with appropriate compounds and ephrins for the given amounts of time. Compounds were prepared in DMSO at 500 times the final concentrations and 0.2% DMSO was used as vehicle control. Following treatment, cells were lysed directly in SDS Gel Loading Buffer and immunoblotted as described previously. […] For this purpose, HEK 293 cell lines overexpressing EphA1, EphA2, EphA3, EphA4, and EphB3 kinases were utilized."}, "[2]": {"test_system": "PC3-DAB2IP KD cells", "assay": "Haptotactic cell migration toward fibronectin (modified Boyden chamber)", "format": "cell-based, human", "conditions": "4 hours", "from_the_text": "One of the well-established functions of Eph receptors is the ligand-dependent repulsive guidance of cell migration. As a ligand-mimicking agonist for EphA2, doxazosin is expected to activate EphA2 on tumor cells and repulse migrating tumor cells in vitro. To test this possibility, we first investigated the effects of doxazosin on integrin-mediated haptotactic cell migration toward fibronectin in a modified Boyden chamber cell migration assay. […] The inhibitory effects were observed when doxazosin was presented either in the bottom chamber, or in both top and bottom chambers in the Transwell assay system. […] Therefore, doxazosin can recapitulate a key function attributed to its native ligands, i.e., negative regulation of cell migration."}, "[3]": {"test_system": "MDA-MB-231, A172-A2 and PC3-DAB2IP KD cells", "assay": "Chemotactic cell migration toward hepatocyte growth factor (HGF)", "format": "cell-based", "conditions": "all three cell lines; lesser degree than in the haptotactic assay"}, "[4]": {"test_system": "PC3-DAB2IP KD cells", "assay": "In vivo metastasis assay, orthotopic PC3-DAB2IP KD prostate xenograft", "experimental": "PC-3 cells (from ATCC) engineered to express both GFP and DAB2IP shRNA were characterized previously. Cells were suspended in serum free medium and 2,000 cells injected directly into the prostate glands of 7 week old NCr athymic nu/nu mice. Three days after injection, mice were divided into two groups, one receiving vehicle alone (5% DMSO/10% Cremophor/PBS) and another 50 mg/kg doxazosin via intraperitoneal injection daily for 10 days. Mice were sacrificed 14 days later and intact primary tumors were imaged under a UV light box with a Digital camera. Lungs were dissected into separate lobes and GFP-expressing metastases were imaged using an inverted fluorescent microscope (Leica). Metastases were enumerated in the two largest lung lobes and placed into size categories based upon their diameters, measured in number of cells (1-10 cells). Total metastatic burden was calculated in each mouse using the following equation: [burden=Σ (# of foci×focus diameter)].\nHistorically, studies of prostate cancer metastasis in the preclinical setting have been hampered by the lack of human cell lines that can produce significant metastasis in a reproducible manner. […] We took advantage of this newly established model system to test how doxazosin can affect metastasis of prostate cancer. To this end, PC3-DAB2IP KD cells were injected orthotopically into the prostate glands of nude mice. Three days later, recipient mice were subject to systemic treatment by daily i.p. injection of either vehicle control, or 50 mg/kg doxazosin for 10 days. Since these cells also expressed green fluorescent protein (GFP), freshly dissected primary tumors could be readily visualized in a GFP light box (FIG. 7A top panels), and distal metastases to lungs and lymph nodes could be observed and quantified under a fluorescent microscope (FIG. 7A lower panels).\nNext, we determined whether doxazosin treatment might impact overall survival. Nude mice orthotopically implanted with the PC3-DAP2IP KD cells were treated for 10 days with either doxazosin, or vehicle control and monitored for survival."}, "[5]": {"target": "EphA2 (Homo sapiens, UniProt P29317)", "sequence (P29317 24-976)": "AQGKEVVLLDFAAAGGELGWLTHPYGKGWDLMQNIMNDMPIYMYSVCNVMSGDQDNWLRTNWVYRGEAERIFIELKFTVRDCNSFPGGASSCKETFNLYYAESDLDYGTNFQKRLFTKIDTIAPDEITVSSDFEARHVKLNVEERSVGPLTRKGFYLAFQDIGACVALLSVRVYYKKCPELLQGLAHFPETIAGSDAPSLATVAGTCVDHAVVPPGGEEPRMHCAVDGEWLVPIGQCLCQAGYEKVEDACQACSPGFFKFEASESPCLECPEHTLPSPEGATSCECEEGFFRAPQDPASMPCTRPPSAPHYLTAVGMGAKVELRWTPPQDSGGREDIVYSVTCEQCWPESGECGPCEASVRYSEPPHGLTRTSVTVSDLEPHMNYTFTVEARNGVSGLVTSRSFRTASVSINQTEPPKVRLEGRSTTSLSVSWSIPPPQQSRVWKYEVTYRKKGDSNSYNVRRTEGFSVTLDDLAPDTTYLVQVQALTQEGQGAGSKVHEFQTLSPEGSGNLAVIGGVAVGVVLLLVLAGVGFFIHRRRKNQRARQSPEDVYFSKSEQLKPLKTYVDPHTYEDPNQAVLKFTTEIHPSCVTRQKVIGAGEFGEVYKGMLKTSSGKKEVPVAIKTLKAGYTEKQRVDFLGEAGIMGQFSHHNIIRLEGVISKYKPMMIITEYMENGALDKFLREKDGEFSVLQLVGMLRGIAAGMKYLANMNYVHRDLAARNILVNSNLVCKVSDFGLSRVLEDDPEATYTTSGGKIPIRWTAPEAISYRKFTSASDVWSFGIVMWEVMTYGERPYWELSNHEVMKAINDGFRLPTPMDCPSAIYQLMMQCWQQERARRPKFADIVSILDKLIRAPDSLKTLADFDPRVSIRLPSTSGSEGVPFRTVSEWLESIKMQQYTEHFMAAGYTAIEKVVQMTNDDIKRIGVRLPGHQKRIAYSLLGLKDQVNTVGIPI", "assay": "EphA2 activation in A172-A2 glioma cells (immunoprecipitation, immunoblot)", "format": "cell-based", "design": "expressed in transfected cells; host or cells: A172 (A172-A2)", "quoted_text": "Cells were plated in 24-well dishes at a density of 100,000 cells/well and grown for 24 hours prior to stimulation with appropriate compounds and ephrins for the given amounts of time. Compounds were prepared in DMSO at 500 times the final concentrations and 0.2% DMSO was used as vehicle control. Following treatment, cells were lysed directly in SDS Gel Loading Buffer and immunoblotted as described previously. […] For immunoprecipitation, 300,000 cells/well were plated in 6-well dishes and lysed in modified RIPA Buffer (20 mM Tris-HCl pH 7.4, 20 mM NaF, 150 mM NaCl, 10% glycerol, 0.1% SDS, 0.5% DCA, 2 mM EDTA, 1% Triton X-100) following treatment. Either 10 ag of ephrin-A1-Fc, or 4 mg of EphA2 mouse monoclonal antibody (Clone D7, Millipore) were used, and mouse IgG was used as a negative control for EphA2 IP. […] We first tested this by utilizing the A172 glioma cells engineered to overexpress EphA2 receptor (A172-A2)."}, "[6]": {"conditions": "nude mice, 50 mg/kg i.p. daily for 10 days"}},
  "data": [
    {"compound": "COc1cc2nc(N3CCN(C(=O)C4COc5ccccc5O4)CC3)nc(N)c2cc1OC", "note": "(stereo not shown) [doxazosin]", "values": [
      {"measurement": "EphA3 activation, Eph receptor panel", "setting": "[1]", "value": "weak"},
      {"measurement": "haptotactic cell migration toward fibronectin", "setting": "[2]", "value": "dose-dependent inhibition of cell migration"},
      {"measurement": "chemotactic cell migration toward HGF", "setting": "[3]", "value": "dose-dependent inhibition"},
      {"measurement": "overall survival", "setting": "[4]; at 27 days after cell implantation, treated for 10 days, vehicle 30%", "value": 70, "unit": "%"},
      {"measurement": "behavioral abnormalities", "setting": "[4]; [6]", "value": "nor were there any signs of behavioral abnormalities"},
      {"measurement": "body weight compared with vehicle control", "setting": "[4]; [6]", "value": "no changes in body weight"},
      {"measurement": "number of lung metastases compared to vehicle control", "setting": "[4]; [6]", "value": "significant reduction in the number of lung metastases"},
      {"measurement": "reduction in primary tumor sizes", "setting": "[4]; [6]", "value": "the difference was not statistically significant"},
      {"measurement": "sizes of lung metastases compared to vehicle-treated mice", "setting": "[4]; [6]", "value": "significantly smaller"},
      {"measurement": "total metastatic burden (numbers and sizes of metastases)", "setting": "[4]; [6]", "value": "even more significantly reduced"},
      {"measurement": "tumor cell dissemination to local lymph nodes", "setting": "[4]; [6]", "value": "reduced, but not to a significant extent"},
      {"measurement": "concentration at which EphA2 activation starts", "setting": "[5]; A172-A2 glioma cells, 90 minutes", "value": "around 25 μM"},
      {"measurement": "EphA2 level after treatment", "setting": "[5]; A172 cells", "value": "degradation of EphA2"}
    ]}
  ]
}
